For the assay, the target named is T1, human GPR119 (Homo sapiens, UniProt Q8TDV5).
T1 construct: expressed in transfected cells
T1 sequence (Q8TDV5 1-335): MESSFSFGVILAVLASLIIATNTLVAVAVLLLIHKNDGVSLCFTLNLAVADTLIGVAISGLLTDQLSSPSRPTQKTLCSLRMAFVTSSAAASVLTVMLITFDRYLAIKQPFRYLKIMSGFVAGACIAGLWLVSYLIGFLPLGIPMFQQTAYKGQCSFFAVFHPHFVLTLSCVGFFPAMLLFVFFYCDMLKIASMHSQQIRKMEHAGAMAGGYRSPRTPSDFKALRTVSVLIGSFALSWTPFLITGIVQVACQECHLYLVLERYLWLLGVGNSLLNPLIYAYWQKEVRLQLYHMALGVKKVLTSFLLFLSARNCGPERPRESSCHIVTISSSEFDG
Description: AlphaScreen cAMP assay in Min-6/hGPR119 cells (activation of GPR119, stimulation of intracellular cAMP). Particulars: MIN6 cells stably transfected with human GPR119; 45 min incubation at room temperature; cAMP by AlphaScreen. Format: cell-based. Here is the method: The compounds of formula I according to the invention modulate the activity of the G-protein-coupled receptor GPR119. The effect of the compounds on the activation of GPR119 and on the stimulation of intracellular cAMP concentration is determined using the AlphaScreen cAMP Assay Kit (Cat. No. #6760625R) made by PerkinElmer.
MIN6 cells [Miyazaki J et al., Endocrinology. 1990 July; 127(1):126-32] are stably transfected with an expression vector for human GPR119 cDNA (Acc. No. NP_848566). Min-6/hGPR119 cells are cultured in DMEM, 10% FBS, 50 μM β-mercaptoethanol, 0.3 mg/mL Geniticin, 2 mM GlutaMAX at 37° C., 5% CO2. For the assay, the cells are seeded in Optiplates (white, 384-well, 160W-barcoded, TC, sterile with lid, Cat. No. #6007688 (Perkin Elmer); 10000 cells/well; 50 μL). The plates covered with lids are then incubated for 24 hours at 37° C., 5% CO2. After the medium is aspirated from the wells completely, 10 μl of the test compound are added, the compounds are diluted using stimulating buffer (140 mM NaCl, 3.6 mM KCl, 0.5 mM NaH2PO4, 0.5 mM MgSO4, 1.5 mM CaCl2, 10 mM Hepes, 5 mM NaHCO3; pH 7.4. 0.5 mM IBMX and 0.1% BSA, the final DMSO concentration is 1%). After 45 minutes incubation at room temperature (approx. 20° C.), the cAMP concentrations are determined using the AlphaScreen cAMP Assay Kit (Cat. No. #6760625R from PerkinElmer).

One may read the EC50 as the midpoint of the concentration-response curve. `CC(C)(C)OC(=O)N1CCC(C)(c2cc3cc(C4=CCN(S(C)(=O)=O)CC4)ncc3o2)CC1` [Example 28, 4-[5-(1-Methanesulfonyl-1,2,3,6-tetrahydro-pyridin-4-yl)-furo[2,3-c]pyridin-2-yl]-4-methyl-piperidine-1-carboxylic acid tert-butyl ester] had an EC50 of 73 nM.

These data come from patent US9012456B2, “Compounds, pharmaceutical compositions and uses thereof” (Boehringer Ingelheim International GmbH, priority 2012, dated 2015).
